Measured values as given in article PMC5078040 (Oncotarget, 2016).

What was measured:
[1] = molecular target: T1, ABL1(F317I)-phosphorylated (Homo sapiens, UniProt P00519, F317I); assay: KinomeScan; assay type: binding; conditions: 1uM
T1 construct: purchased DiscoveRx KINOMEscan

AKT2 = molecular target: T2, AKT2 (Homo sapiens, UniProt P31751); assay: KinomeScan; assay type: binding; conditions: 1uM
T2 construct: purchased DiscoveRx KINOMEscan

ASK2 = molecular target: T3, ASK2 (Homo sapiens, UniProt O95382); assay: KinomeScan; assay type: binding; conditions: 1uM
T3 construct: purchased DiscoveRx KINOMEscan

BLK = molecular target: T4, BLK (Homo sapiens, UniProt P51451); assay: KinomeScan; assay type: binding; conditions: 1uM
T4 construct: purchased DiscoveRx KINOMEscan

CLK3 = molecular target: T5, CLK3 (Homo sapiens, UniProt P49761); assay: KinomeScan; assay type: binding; conditions: 1uM
T5 construct: purchased DiscoveRx KINOMEscan

CSNK2A2 = molecular target: T6, CSNK2A2 (Homo sapiens, UniProt P19784); assay: KinomeScan; assay type: binding; conditions: 1uM
T6 construct: purchased DiscoveRx KINOMEscan

DMPK = molecular target: T7, DMPK (Homo sapiens, UniProt Q09013); assay: KinomeScan; assay type: binding; conditions: 1uM
T7 construct: purchased DiscoveRx KINOMEscan

EPHB1 = molecular target: T8, EPHB1 (Homo sapiens, UniProt P54762); assay: KinomeScan; assay type: binding; conditions: 1uM
T8 construct: purchased DiscoveRx KINOMEscan

FGFR2 = molecular target: T9, FGFR2 (Homo sapiens, UniProt P21802); assay: KinomeScan; assay type: binding; conditions: 1uM
T9 construct: purchased DiscoveRx KINOMEscan

HIPK2 = molecular target: T10, HIPK2 (Homo sapiens, UniProt Q9H2X6); assay: KinomeScan; assay type: binding; conditions: 1uM
T10 construct: purchased DiscoveRx KINOMEscan

IKK-beta = molecular target: T11, IKK-beta (Homo sapiens, UniProt O14920); assay: KinomeScan; assay type: binding; conditions: 1uM
T11 construct: purchased DiscoveRx KINOMEscan

KIT = molecular target: T12, KIT (Homo sapiens, UniProt P10721); assay: KinomeScan; assay type: binding; conditions: 1uM
T12 construct: purchased DiscoveRx KINOMEscan

KIT(V559D,T670I) = molecular target: T13, KIT(V559D,T670I) (Homo sapiens, UniProt P10721, T670I/V559D); assay: KinomeScan; assay type: binding; conditions: 1uM
T13 construct: purchased DiscoveRx KINOMEscan

LATS2 = molecular target: T14, LATS2 (Homo sapiens, UniProt Q9NRM7); assay: KinomeScan; assay type: binding; conditions: 1uM
T14 construct: purchased DiscoveRx KINOMEscan

LIMK2 = molecular target: T15, LIMK2 (Homo sapiens, UniProt P53671); assay: KinomeScan; assay type: binding; conditions: 1uM
T15 construct: purchased DiscoveRx KINOMEscan

MAP3K2 = molecular target: T16, MAP3K2 (Homo sapiens, UniProt Q9Y2U5); assay: KinomeScan; assay type: binding; conditions: 1uM
T16 construct: purchased DiscoveRx KINOMEscan

MARK3 = molecular target: T17, MARK3 (Homo sapiens, UniProt P27448); assay: KinomeScan; assay type: binding; conditions: 1uM
T17 construct: purchased DiscoveRx KINOMEscan

MARK4 = molecular target: T18, MARK4 (Homo sapiens, UniProt Q96L34); assay: KinomeScan; assay type: binding; conditions: 1uM
T18 construct: purchased DiscoveRx KINOMEscan

MET = molecular target: T19, MET (Homo sapiens, UniProt P08581); assay: KinomeScan; assay type: binding; conditions: 1uM
T19 construct: purchased DiscoveRx KINOMEscan

MLCK = molecular target: T20, MLCK (Homo sapiens, UniProt Q32MK0); assay: KinomeScan; assay type: binding; conditions: 1uM
T20 construct: purchased DiscoveRx KINOMEscan

MST1R = molecular target: T21, MST1R (Homo sapiens, UniProt Q04912); assay: KinomeScan; assay type: binding; conditions: 1uM
T21 construct: purchased DiscoveRx KINOMEscan

NDR2 = molecular target: T22, NDR2 (Homo sapiens, UniProt Q9Y2H1); assay: KinomeScan; assay type: binding; conditions: 1uM
T22 construct: purchased DiscoveRx KINOMEscan

NEK11 = molecular target: T23, NEK11 (Homo sapiens, UniProt Q8NG66); assay: KinomeScan; assay type: binding; conditions: 1uM
T23 construct: purchased DiscoveRx KINOMEscan

NEK2 = molecular target: T24, NEK2 (Homo sapiens, UniProt P51955); assay: KinomeScan; assay type: binding; conditions: 1uM
T24 construct: purchased DiscoveRx KINOMEscan

PHKG2 = molecular target: T25, PHKG2 (Homo sapiens, UniProt P15735); assay: KinomeScan; assay type: binding; conditions: 1uM
T25 construct: purchased DiscoveRx KINOMEscan

PIK3C2B = molecular target: T26, PIK3C2B (Homo sapiens, UniProt O00750); assay: KinomeScan; assay type: binding; conditions: 1uM
T26 construct: purchased Invitrogen

PIK3C2G = molecular target: T27, PIK3C2G (Homo sapiens, UniProt O75747); assay: KinomeScan; assay type: binding; conditions: 1uM
T27 construct: purchased DiscoveRx KINOMEscan

PIK3CA(H1047L) = molecular target: T28, PIK3CA(H1047L) (Homo sapiens, UniProt P42336, H1047L); assay: KinomeScan; assay type: binding; conditions: 1uM
T28 construct: purchased DiscoveRx KINOMEscan

PRKX = molecular target: T29, PRKX (Homo sapiens, UniProt P51817); assay: KinomeScan; assay type: binding; conditions: 1uM
T29 construct: purchased DiscoveRx KINOMEscan

[2] = molecular target: T30, RSK1(Kin.Dom.1-N-terminal) (Homo sapiens, UniProt Q15418); assay: KinomeScan; assay type: binding; conditions: 1uM
T30 construct: RSK1(Kin.Dom.1-N-terminal); purchased DiscoveRx KINOMEscan

SIK = molecular target: T31, SIK (Homo sapiens, UniProt P57059); assay: KinomeScan; assay type: binding; conditions: 1uM
T31 construct: purchased DiscoveRx KINOMEscan

STK39 = molecular target: T32, STK39 (Homo sapiens, UniProt Q9UEW8); assay: KinomeScan; assay type: binding; conditions: 1uM
T32 construct: purchased DiscoveRx KINOMEscan

TIE2 = molecular target: T33, TIE2 (Homo sapiens, UniProt Q02763); assay: KinomeScan; assay type: binding; conditions: 1uM
T33 construct: purchased DiscoveRx KINOMEscan

TRKA = molecular target: T34, TRKA (Homo sapiens, UniProt P04629); assay: KinomeScan; assay type: binding; conditions: 1uM
T34 construct: purchased DiscoveRx KINOMEscan

TSSK1B = molecular target: T35, TSSK1B (Homo sapiens, UniProt Q9BXA7); assay: KinomeScan; assay type: binding; conditions: 1uM
T35 construct: purchased DiscoveRx KINOMEscan

VEGFR2 = molecular target: T36, VEGFR2 (Homo sapiens, UniProt P35968); assay: KinomeScan; assay type: binding; conditions: 1uM
T36 construct: purchased DiscoveRx KINOMEscan

HT (B-NHL) = assay: Colony formation assay; assay type: cell-based; conditions: Homo sapiens, HT15, 360 h, 15 days, read-out: anti-colony formation EC50
Protocol: (§1) In brief, 1 mL of 3 % agarose combined with 1 mL HT, REC-1, MEC-1 and MOLM-13 growth media was used as the bottom agar in a 6-well plate. […] Cells were maintained in a humidified 5% CO2 incubator at 37°C for 15 days. On the 15th day, the numbers of colonies in each well were counted and each measurement was performed in triplicate.

MEC-1 (CLL) = assay: Colony formation assay; assay type: cell-based; conditions: Homo sapiens, MEC1, 360 h; MEC-1, 15 days; read-out: anti-colony formation EC50
Protocol: as §1

MOLM13 (AML) = assay: Colony formation assay; assay type: cell-based; conditions: Homo sapiens, MOLM-13, 360 h; MOLM13, 15 days; read-out: anti-colony formation EC50
Protocol: as §1

PI3Kα = PI3Kα (Homo sapiens, UniProt P42336); assay: biochemical
Protocol: The reaction in each tube was started immediately by adding ATP and kept going for an hour under 37°C. After the tube cooled for 5 minutes at room temperature, 5 μL solvent reactions were carried out in a 384-well plate. Then 5 μL of ADP-Glo™ reagent was added into each well to stop the reaction and consume the remaining ADP within 40 minutes. At the end, 10 μL of kinase detection reagent was added into the well and incubated for 30 minutes to produce a luminescence signal. Luminescence signal was measured with an automated plate reader (Perkin-Elmer Envision) and each measurement was performed in triplicate.

T36 sequence (P35968 20-1356): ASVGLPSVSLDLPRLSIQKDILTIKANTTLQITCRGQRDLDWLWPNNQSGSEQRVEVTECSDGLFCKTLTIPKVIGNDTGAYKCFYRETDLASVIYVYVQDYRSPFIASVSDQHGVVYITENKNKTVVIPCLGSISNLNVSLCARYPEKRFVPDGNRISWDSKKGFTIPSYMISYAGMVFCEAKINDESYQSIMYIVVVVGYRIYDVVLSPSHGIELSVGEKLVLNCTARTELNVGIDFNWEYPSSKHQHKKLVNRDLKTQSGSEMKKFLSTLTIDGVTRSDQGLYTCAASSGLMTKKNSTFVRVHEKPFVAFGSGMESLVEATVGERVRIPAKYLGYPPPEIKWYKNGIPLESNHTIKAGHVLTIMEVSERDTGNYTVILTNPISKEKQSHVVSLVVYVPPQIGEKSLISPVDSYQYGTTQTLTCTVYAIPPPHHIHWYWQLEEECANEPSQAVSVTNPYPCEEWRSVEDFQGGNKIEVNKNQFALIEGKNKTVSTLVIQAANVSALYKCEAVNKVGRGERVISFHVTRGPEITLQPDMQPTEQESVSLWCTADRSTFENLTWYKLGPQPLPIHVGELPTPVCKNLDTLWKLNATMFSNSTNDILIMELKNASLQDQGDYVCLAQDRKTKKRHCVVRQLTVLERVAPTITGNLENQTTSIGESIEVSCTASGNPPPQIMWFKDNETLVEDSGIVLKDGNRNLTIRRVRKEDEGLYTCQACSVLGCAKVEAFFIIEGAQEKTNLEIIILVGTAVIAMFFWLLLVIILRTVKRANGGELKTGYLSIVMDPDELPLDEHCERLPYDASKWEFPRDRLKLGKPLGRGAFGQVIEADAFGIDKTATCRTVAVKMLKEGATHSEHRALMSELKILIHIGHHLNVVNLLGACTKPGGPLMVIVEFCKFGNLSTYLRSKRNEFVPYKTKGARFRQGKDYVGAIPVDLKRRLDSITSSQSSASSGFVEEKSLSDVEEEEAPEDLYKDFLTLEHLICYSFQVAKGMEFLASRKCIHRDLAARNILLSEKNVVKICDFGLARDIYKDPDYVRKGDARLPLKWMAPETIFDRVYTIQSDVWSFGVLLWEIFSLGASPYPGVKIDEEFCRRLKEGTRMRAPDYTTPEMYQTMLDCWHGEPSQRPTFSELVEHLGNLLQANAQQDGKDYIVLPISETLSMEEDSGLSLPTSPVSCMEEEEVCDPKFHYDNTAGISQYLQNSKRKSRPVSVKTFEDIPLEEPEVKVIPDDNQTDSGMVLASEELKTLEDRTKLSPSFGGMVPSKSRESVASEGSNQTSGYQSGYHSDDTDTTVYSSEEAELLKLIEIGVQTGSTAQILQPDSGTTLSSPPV
T34 sequence (P04629 33-796): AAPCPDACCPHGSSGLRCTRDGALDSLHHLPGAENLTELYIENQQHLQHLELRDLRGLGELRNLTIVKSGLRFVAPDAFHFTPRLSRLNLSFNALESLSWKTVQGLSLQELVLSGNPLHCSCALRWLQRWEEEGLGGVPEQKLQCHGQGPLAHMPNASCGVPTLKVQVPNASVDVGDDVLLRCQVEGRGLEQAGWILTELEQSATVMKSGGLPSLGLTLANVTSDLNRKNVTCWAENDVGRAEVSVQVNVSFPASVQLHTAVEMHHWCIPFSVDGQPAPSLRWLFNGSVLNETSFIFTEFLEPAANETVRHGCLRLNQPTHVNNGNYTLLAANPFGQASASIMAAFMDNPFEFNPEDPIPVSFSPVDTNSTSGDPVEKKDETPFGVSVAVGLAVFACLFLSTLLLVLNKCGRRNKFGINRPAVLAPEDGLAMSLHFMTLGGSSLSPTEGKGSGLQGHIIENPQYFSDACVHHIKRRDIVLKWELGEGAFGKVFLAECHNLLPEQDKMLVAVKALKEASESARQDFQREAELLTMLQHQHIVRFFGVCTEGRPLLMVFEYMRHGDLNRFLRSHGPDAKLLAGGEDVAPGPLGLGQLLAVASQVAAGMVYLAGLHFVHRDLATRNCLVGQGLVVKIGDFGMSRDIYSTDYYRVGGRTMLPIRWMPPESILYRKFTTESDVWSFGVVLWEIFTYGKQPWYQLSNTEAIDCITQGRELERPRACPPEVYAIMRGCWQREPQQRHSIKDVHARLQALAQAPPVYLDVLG
T8 sequence (P54762 18-984): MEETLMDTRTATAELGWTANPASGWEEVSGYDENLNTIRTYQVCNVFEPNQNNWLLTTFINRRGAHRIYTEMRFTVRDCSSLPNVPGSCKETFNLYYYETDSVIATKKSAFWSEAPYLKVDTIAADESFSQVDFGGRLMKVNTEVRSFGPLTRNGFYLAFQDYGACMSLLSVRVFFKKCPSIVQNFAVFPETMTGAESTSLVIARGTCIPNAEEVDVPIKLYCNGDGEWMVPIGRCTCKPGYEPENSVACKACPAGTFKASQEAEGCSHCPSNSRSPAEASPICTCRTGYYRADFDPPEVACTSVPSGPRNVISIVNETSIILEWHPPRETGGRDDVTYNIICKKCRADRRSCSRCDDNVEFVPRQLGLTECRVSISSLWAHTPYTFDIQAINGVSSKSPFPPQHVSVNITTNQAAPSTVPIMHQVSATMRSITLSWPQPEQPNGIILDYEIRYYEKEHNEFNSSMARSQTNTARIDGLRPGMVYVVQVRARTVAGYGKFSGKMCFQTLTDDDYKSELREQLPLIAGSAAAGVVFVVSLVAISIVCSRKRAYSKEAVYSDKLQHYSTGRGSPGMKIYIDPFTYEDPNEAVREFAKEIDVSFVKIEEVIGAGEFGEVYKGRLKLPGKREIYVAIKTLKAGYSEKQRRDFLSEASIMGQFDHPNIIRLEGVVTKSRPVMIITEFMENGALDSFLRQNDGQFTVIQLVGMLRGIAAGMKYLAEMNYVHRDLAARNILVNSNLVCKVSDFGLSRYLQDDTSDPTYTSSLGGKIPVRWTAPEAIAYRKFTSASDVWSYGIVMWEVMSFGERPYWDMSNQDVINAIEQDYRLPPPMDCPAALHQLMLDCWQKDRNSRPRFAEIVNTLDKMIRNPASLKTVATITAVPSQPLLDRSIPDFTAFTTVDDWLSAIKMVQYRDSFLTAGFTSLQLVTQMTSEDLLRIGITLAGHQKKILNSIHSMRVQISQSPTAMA
T23 sequence (Q8NG66 whole entry): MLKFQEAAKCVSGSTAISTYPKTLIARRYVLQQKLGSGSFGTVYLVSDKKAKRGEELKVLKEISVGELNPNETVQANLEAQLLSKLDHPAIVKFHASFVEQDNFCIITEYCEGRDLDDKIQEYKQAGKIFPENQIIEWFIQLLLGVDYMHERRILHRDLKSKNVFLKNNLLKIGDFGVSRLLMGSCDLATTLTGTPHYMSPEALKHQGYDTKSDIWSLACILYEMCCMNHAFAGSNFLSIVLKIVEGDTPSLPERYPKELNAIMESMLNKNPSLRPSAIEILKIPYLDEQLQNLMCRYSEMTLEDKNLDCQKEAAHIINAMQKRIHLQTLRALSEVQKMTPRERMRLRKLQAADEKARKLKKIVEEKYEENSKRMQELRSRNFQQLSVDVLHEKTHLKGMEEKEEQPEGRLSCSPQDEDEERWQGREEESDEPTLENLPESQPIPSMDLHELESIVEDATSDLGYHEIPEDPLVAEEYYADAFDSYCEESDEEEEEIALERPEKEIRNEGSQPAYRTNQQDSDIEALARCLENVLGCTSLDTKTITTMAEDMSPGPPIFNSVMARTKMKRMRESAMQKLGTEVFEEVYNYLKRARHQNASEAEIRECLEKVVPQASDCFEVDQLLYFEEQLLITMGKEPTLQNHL
T9 sequence (P21802 22-821): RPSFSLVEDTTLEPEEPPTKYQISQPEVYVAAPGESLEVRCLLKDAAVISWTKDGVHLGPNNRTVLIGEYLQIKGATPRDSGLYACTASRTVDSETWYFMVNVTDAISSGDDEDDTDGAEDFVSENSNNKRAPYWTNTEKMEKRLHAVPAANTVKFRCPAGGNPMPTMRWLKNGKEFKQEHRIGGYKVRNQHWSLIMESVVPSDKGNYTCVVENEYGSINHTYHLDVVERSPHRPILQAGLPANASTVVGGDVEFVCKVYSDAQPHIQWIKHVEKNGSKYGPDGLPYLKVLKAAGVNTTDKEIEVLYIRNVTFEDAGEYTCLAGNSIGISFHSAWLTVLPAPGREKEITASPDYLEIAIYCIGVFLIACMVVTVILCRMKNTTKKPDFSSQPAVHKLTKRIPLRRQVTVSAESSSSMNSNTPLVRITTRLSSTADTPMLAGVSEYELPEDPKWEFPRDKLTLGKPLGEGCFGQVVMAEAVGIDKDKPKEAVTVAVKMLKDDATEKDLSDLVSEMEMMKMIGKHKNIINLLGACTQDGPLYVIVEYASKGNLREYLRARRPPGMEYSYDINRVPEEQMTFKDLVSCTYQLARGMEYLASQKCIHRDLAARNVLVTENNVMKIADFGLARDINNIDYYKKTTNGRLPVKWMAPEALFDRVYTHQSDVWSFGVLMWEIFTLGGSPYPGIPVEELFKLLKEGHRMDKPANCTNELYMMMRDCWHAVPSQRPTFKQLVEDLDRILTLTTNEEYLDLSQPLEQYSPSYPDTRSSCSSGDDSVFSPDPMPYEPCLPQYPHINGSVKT
T25 sequence (P15735 whole entry): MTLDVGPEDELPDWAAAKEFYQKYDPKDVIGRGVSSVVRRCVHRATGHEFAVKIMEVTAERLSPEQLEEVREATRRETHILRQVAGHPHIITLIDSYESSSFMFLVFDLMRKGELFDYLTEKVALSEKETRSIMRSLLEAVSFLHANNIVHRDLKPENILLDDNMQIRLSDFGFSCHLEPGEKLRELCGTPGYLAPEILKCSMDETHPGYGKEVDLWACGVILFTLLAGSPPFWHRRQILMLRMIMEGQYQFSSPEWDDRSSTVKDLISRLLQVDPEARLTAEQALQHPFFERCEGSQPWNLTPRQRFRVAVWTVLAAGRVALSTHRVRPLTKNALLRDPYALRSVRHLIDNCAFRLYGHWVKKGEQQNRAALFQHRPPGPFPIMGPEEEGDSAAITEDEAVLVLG

Which “KinomeScan ABL1(F317I)-phosphorylated” value [1] does the source give for `Cc1nc(NC(=O)[C@@H](N)C(C)C)sc1-c1cnc(Cl)c(NS(=O)(=O)c2ccccc2)c1` [PI3KD-IN-015] here?
Its value is 89.

And the “KinomeScan AKT2” value (AKT2)?
Its value is 86.

What about the “KinomeScan ASK2” value (ASK2) of the same compound?
The value was 84.

And the “KinomeScan BLK” value (BLK)?
The value was 97.

What about the “KinomeScan CLK3” value (CLK3) of the same compound?
The value was 100.

And the “KinomeScan CSNK2A2” value (CSNK2A2)?
Its value is 39.

And the “KinomeScan DMPK” value (DMPK)?
Its value is 83.

What about the “KinomeScan EPHB1” value (EPHB1) of the same compound?
The value was 100.

And the “KinomeScan FGFR2” value (FGFR2)?
Its value is 100.

And the “KinomeScan HIPK2” value (HIPK2)?
Its value is 100.

And the “KinomeScan IKK-beta” value (IKK-beta)?
Its value is 100.

And the “KinomeScan KIT” value (KIT)?
Its value is 92.

And the “KinomeScan KIT(V559D,T670I)” value (KIT(V559D,T670I))?
Its value is 90.

And the “KinomeScan LATS2” value (LATS2)?
The value was 100.

And the “KinomeScan LIMK2” value (LIMK2)?
The value was 100.

What about the “KinomeScan MAP3K2” value (MAP3K2) of the same compound?
Its value is 100.

What about the “KinomeScan MARK3” value (MARK3) of the same compound?
Its value is 100.

And the “KinomeScan MARK4” value (MARK4)?
Its value is 100.

And the “KinomeScan MET” value (MET)?
Its value is 100.

What about the “KinomeScan MLCK” value (MLCK) of the same compound?
The value was 95.

What about the “KinomeScan MST1R” value (MST1R) of the same compound?
The value was 86.

And the “KinomeScan NDR2” value (NDR2)?
The value was 100.

And the “KinomeScan NEK11” value (NEK11)?
Its value is 86.

What about the “KinomeScan NEK2” value (NEK2) of the same compound?
Its value is 100.

What about the “KinomeScan PHKG2” value (PHKG2) of the same compound?
Its value is 91.

What about the “KinomeScan PIK3C2B” value (PIK3C2B) of the same compound?
Its value is 2.2.

And the “KinomeScan PIK3C2G” value (PIK3C2G)?
Its value is 65.

What about the “KinomeScan PIK3CA(H1047L)” value (PIK3CA(H1047L)) of the same compound?
The value was 0.

And the “KinomeScan PRKX” value (PRKX)?
The value was 95.

And the “KinomeScan RSK1(Kin.Dom.1-N-terminal)” value [2]?
The value was 74.

What about the “KinomeScan SIK” value (SIK) of the same compound?
The value was 99.

What about the “KinomeScan STK39” value (STK39) of the same compound?
The value was 100.

What about the “KinomeScan TIE2” value (TIE2) of the same compound?
Its value is 89.

And the “KinomeScan TRKA” value (TRKA)?
The value was 96.

And the “KinomeScan TSSK1B” value (TSSK1B)?
The value was 97.

And the “KinomeScan VEGFR2” value (VEGFR2)?
Its value is 99.

What about the EC50 (HT (B-NHL)) of the same compound?
Its EC50 is 374 nM.

What about the EC50 (MEC-1 (CLL)) of the same compound?
The EC50 was 765 nM.

And the EC50 (MOLM13 (AML))?
The EC50 was 215 nM.

What about the IC50 (PI3Kα) of the same compound?
Its IC50 is 60 nM.
